The target of test [1] is T1, human serotonin transporter (hSERT) (Homo sapiens, UniProt P31645).
T1 construct: expressed in transfected cells; host or cells: HEK-293
The test can be described thus: SPA radioligand binding at human serotonin transporter (3H-citalopram). On the procedure: The compounds are tested for biological activity by their ability to inhibit binding of selective radioligands at the human serotonin and noradrenaline transporters (SERT and NET, respectively), using scintillation proximity assay (SPA) technology. The SPA binding is performed using cellular membrane preparations prepared from cell lines expressing human cDNA encoding either SERT or NET (hSERT, hNET), using the radioligands 3H-citalopram and 3H-nisoxetine.
Human embryonic kidney cells (HEK-293) expressing each transporter are maintained as a continuous culture, using standard cell culture techniques, in 50 mL of growth medium (see Media and Buffers for composition) in 225 cm^2 flasks, at 37° C. in a humidified atmosphere with 5% CO2 present. Cells are passaged from a 90% confluent monolayer at a ratio of 1:3-1:4. For cell harvesting, the growth medium is removed from the monolayer and the cells are incubated with cell dissociation solution (Sigma) until showing signs of dissociation. The cells are subsequently knocked from the base of the flask and pelleted by centrifugation for storage (frozen at −80° C.) prior to further use.
Cell pellets are thawed on ice and resuspended in 3 mL of membrane preparation buffer (see Media and Buffers for composition) per 1 mL of packed cell volume, using a vortex mixer to disperse the cell pellet. • After incubation on ice for 10 minutes, the suspension is homogenised for four individual 10 second intervals using a hand-held homogeniser. The homogenate is then centrifuged at 1075×g for 20 minutes at 4° C. • The supernatants are then collected and retained. Initial cell & nuclei pellets (P1) are subsequently rehomogenised and centrifuged using the conditions cited above, and the supernatants collected and pooled with those retained from the first spin.
The pooled supernatants are centrifuged at 35000×g for 30 minutes at 4° C., and the supernatants discarded. The pellets (P2) are then resuspended in 1 mL of membrane preparation buffer per 1 mL of the original packed cell volume. Protein concentrations are then measured and the membrane suspension was finally frozen in aliquots of set volume and stored at −80° C. prior to use in assays.
The specific SPA bead type differed for each transporter, wheat germ agglutinin-coated yttrium silicate (YSi WGA) SPA beads are used for hSERT and WGA-coated polyvinyltoluene (PvT WGA) SPA beads for hNET assays. For each batch of membrane used, optimal concentrations of bead and membrane are determined
Tritiated radioligands specific to each transporter (3H-citalopram for hSERT and ^3H-nisoxetine for hNET) are used. The assay free radioligand concentration is expressed as a percentage of the total free radioligand concentration to give an estimate of the radioligand depletion. The radioligand depletion in assays for both transporters is less than 30% to ensure that there was sufficient radioligand available for binding. The ligand depletion value is also used for selecting the optimal assay conditions when using new batches of membranes.
The affinity of the specific radioligand for the respective transporter is determined for each membrane batch at the selected protein and bead concentrations. This is achieved by the determination of the KD, the concentration of free radioligand at which 50% of the transporter binding sites were occupied. The mean KD for a radioligand at a batch of membranes is determined from data from a minimum of three separate assays. The mean KD is subsequently used for all assays using the membrane batch profiled to enable determination of Ki values of compounds studied using the method determined by Cheng and Prussoff (Cheng Y C and Prusoff W H. Relationship between the inhibition constant (Ki) and the concentration of inhibitor which causes 50% inhibition of an enzymatic reaction. Biochem Pharmacol 1973; 22:[…].)
The required amount of membrane is thawed on ice and added to a predetermined volume of bead suspension in assay buffer. […]

The target in test [2] is T2, human noradrenaline transporter (hNET) (Homo sapiens, UniProt P23975).
T2 construct: expressed in transfected cells; host or cells: HEK-293
The test can be described thus: SPA radioligand binding at human noradrenaline transporter (3H-nisoxetine).
Experimental: The affinity of the specific radioligand for the respective transporter is determined for each membrane batch at the selected protein and bead concentrations. […] The mean KD for a radioligand at a batch of membranes is determined from data from a minimum of three separate assays.
The required amount of membrane is thawed on ice and added to a predetermined volume of bead suspension in assay buffer. The beads are then pre-coupled by incubating the predetermined protein quantity per mg of bead on a shaker at a temperature of 4° C. for 2 hours. Subsequently, the bead/membrane complex is spun down at 865×g for 5 minutes. The resulting pellet is resuspended in assay buffer and this spin/wash step is then repeated. The final pellet is then resuspended in assay buffer at the specific concentration required for the final assay.
An aliquot of [^3H]-radioligand stock is diluted in assay buffer to give a pre-determined final assay concentration less than the equilibrium dissociation constant (KD) value.
All test compounds are prepared at a concentration of 4 mM in 100% dimethyl sulphoxide (DMSO) from dry samples.
The same volume of assay buffer is added to specific wells of the plate to enable subsequent measurement of total radioligand binding. Furthermore, 20 μL a high concentration of compound specific to each transporter assay is subsequently added to predetermined wells to determine non-specific binding (NSB).

Setting [3] is: hSERT membranes from HEK-293 cells, 3H-citalopram, SPA, read-out: SRI Ki.
Setting [4] is: hNET membranes from HEK-293 cells, 3H-nisoxetine, SPA, read-out: NRI Ki.

Where a name gives a salt, the structure may show the parent alone. Read-outs that look alike come from different tables or passages of the source.

T2 sequence (P23975 whole entry): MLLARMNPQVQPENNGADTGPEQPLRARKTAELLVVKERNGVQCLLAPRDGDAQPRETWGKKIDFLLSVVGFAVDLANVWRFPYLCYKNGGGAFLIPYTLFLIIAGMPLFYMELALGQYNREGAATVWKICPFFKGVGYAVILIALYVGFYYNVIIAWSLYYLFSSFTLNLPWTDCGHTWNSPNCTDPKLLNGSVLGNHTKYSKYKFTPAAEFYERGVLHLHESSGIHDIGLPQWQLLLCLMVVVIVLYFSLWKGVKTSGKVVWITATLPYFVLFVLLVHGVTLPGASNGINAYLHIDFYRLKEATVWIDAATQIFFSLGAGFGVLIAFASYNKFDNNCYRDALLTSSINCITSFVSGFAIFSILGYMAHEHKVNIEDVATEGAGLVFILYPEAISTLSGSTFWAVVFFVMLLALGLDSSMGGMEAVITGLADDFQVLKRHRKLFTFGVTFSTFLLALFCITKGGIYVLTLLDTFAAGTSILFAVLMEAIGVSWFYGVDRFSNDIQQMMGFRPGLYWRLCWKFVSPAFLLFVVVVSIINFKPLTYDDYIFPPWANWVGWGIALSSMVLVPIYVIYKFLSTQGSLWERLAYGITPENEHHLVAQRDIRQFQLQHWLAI
T1 sequence (P31645 whole entry): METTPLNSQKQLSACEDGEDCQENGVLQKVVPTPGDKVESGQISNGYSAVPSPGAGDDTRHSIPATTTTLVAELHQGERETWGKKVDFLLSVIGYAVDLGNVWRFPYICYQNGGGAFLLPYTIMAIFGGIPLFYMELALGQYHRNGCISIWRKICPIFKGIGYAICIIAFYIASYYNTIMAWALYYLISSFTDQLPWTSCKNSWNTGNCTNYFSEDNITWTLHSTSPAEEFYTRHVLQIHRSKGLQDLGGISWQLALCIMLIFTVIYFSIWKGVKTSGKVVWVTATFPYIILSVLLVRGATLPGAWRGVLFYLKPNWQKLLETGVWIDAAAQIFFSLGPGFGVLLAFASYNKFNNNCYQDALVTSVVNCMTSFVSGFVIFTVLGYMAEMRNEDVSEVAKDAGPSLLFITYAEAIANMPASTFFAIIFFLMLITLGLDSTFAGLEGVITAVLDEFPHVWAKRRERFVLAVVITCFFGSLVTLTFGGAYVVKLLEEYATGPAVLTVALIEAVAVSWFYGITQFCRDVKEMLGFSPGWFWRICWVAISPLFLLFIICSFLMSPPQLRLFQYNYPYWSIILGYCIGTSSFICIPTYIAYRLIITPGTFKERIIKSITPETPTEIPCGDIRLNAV

As usually defined, the Ki is a dissociation constant, usually derived from enzyme kinetics or from competition with a known ligand. For the molecule `CSc1ccccc1C(=O)N(CC1(C)CCC1)[C@H]1CCNC1` [Example 9, N-[(1-methylcyclobutyl)methyl]-2-(methylthio)-N-[(3S)-pyrrolidin-3-yl]benzamide hydrochloride], the inhibition constant Ki in test [1] (setting [3]) is 0.02 µM; in test [2], 0.006 µM.
For `CCCN(C(=O)c1cc(F)ccc1Oc1ccccc1)[C@H]1CCNC1` [Example 7, 5-fluoro-2-phenoxy-N-propyl-N-[(3S)-pyrrolidin-3-yl]benzamide hydrochloride], the inhibitory constant (Ki) in test [1] (setting [3]) came out at 2.4 µM; in test [2] (setting [4]) it was 0.009 µM.
For `CSc1ccccc1C(=O)N(C1CCCCC1)[C@H]1CCNC1` [Example 20, N-cyclohexyl-2-(methylthio)-N-[(3S)-pyrrolidin-3-yl]benzamide hydrochloride] the same measures were 0.017 µM and 0.005 µM.
With `O=C(c1ccccc1Oc1ccccc1)N(c1ccccc1)[C@H]1CCNC1` [Example 14, 2-phenoxy-N-phenyl-N-[(3S)-pyrrolidin-3-yl]benzamide hydrochloride], the figures for the Ki in test [1] and in test [2] (setting [4]) were 0.067 µM and 0.003 µM, respectively.
For the molecule `O=C(c1ccccc1C1CCCC1)N(CC1CC1)[C@H]1CCNC1` [Example 19, 2-cyclopentyl-N-(cyclopropylmethyl)-N-[(3S)-pyrrolidin-3-yl]benzamide hydrochloride], the Ki in test [1] (setting [3]) is 0.5 µM; in test [2] (setting [4]) it was 0.016 µM.
On the same counts, the results for `O=C(c1ccccc1Oc1ccccc1)N(C1CCCC1)[C@H]1CCNC1` [Example 4, N-Cyclopentyl-2-phenoxy-N-[(3S)-pyrrolidin-3-yl]benzamide hydrochloride] are 0.07 µM and 0.012 µM.

The values above are taken from patent US20090239928A1, “N-Pyrrolidin-3YL-Amide Derivatives As Serotonin and Noradrenalin Re-Uptake Inhibitors” (priority 2004, published 2009).
